Reference: patent US7598291B2, “Methods and compositions for enhancing collagen and proteoglycan synthesis in the skin” (priority 2004, dated 2009)

What was measured:
[1] = topical application, hairless mice; reduced in the process to dihydrolipoic acid; cited from earlier work
skin fibroblasts [2] = assay: Collagen synthesis in vitro (radioproline incorporation) in skin fibroblasts; type: cell-based, human; conditions: lipoic acid 0 to 5 μg/ml (FIG. 5), proanthocyanidin vs control (FIG. 6)
Description: Rat skin fibroblasts and NIH 3T3 cells were used to measure collagen synthesis in vitro. Cells at a density of 100×10^3 in 24-well-plates were grown with 10% FBS/DMEM (Irvine Scientific, CA) supplemented with different doses of lipoic acid (0-16 μg/ml). Cells were incubated at 37° C. in a 5% CO2 environment for 24 hours. Medium was changed into labeling medium for another 24 hours (50 μCi/ml [^3H]proline, 25 μg/ml ascorbic acid, 25 μg/ml β-aminoproprionitrile (β-APN)). Collagen synthesis from cultured cells was assayed as previously described (B. Han et al. (2003), supra). Briefly, cells and medium were acidified with glacial acetic acid to a final concentration of 0.5 M and pepsin (Worthington) added to a final concentration of 0.5 mg/ml. Plates were shaken overnight at 4° C., collagen precipitated with 4.0 M NaCl and pellets washed with 20% cold ethanol 3 times. Pellets were dissolved with 0.5 M acetic acid and counted with a scintillation counter (Beckman)

lipid peroxidation = conditions: old rats, diet supplemented with lipoic acid; cited from earlier work
rat hepatocytes = conditions: older rats, 2-week dietary supplementation prior to hepatocyte isolation; cited from earlier work
skin fibroblasts [3] = assay: Cell proliferation assay (thymidine incorporation); type: cell-based, human; conditions: vs control; FIG. 6
Description: NIH 3T3 fibroblasts were cultured in DMEM containing 10% fetal bovine serum in 24-well plates at a density of 80×10^3. After overnight attachment, medium was changed to a conditioning medium with different dosages of lipoic acid (20 ng-20 μg). DNA content was assayed after 48 hours in culture. Briefly, cells were trypsinized with 0.25% trypsin-EDTA and pelleted by centrifugation. To the cell pellet, 1.5 ml of cold 10 mM EDTA (pH 12.3) was added to solubilize cells. After neutralizing with 1.0 M KH2PO4 (140 μl) and mixing with 0.5 ml of 100 mM NaCl/10 mM Tris (pH 7.0), 10 μl of 66.7 μg/ml Hoechst 33258 (Sigma) was added to give fluorescent readings at emissions of 350 nm and 450 nm. Cell numbers were obtained by comparing the reading to a standard curve of cellular DNA (1×10^4 to 1×10^6 fibroblast). [^3H]Thymidine incorporation into DNA was performed as previously described (B. Han et al., “Proanthocyanidin: A Natural Crosslinking Reagent for Stabilizing Collagen Matrices,” J. Biomed. Mater. Res. 65A: 118-24 (2003)).

Row | Compound | penetration across the skin barrier [1] | collagen synthesis in vitro (incorporation of radioproline) (skin fibroblasts [2]) | levels of malondialdehyde, an indicator of lipid peroxidation (lipid peroxidation) | age-associated effects on ascorbic acid metabolism (rat hepatocytes) | cellular proliferation (incorporation of thymidine) (skin fibroblasts [3])
1 | O=C(O)CCCC[C@@H]1CCSS1 (racemic) [lipoic acid, 1,2-dithiolane-3-pentanoic acid] | effectively penetrate across the skin barrier |  |  |  | 
2 | O=C(O)CCCC[C@@H]1CCSS1 (stereo in doubt) [lipoic acid, 1,2-dithiolane-3-pentanoic acid] |  | increased | reduced | almost completely reversed | 
3 | proanthocyanidin |  | increased |  |  | increase in cellular proliferation
